In ChEMBL document CHEMBL4049384, “Synthesis and evaluation of an injectable everolimus prodrug” (Bioorg Med Chem Lett, 2017):
pIC50: −log10 of the molar value. Values after ≈ are worked out from the molar mass of the structure shown.

How the values were obtained:
[1] = Drug uptake in Sprague-Dawley rat blood at 10 mg/kg, po after 2 hrs by HPLC method; assay type: ADME, organism-based; conditions: read-out: Drug uptake
[2] = Half life in Sprague-Dawley rat at 10 mg/kg, po; assay type: ADME, organism-based; conditions: in vivo
[3] = tested on: Mus musculus; assay: Toxicity in nude mouse xenografted with human OS-RC-2 cells assessed as death at 6 mg/kg administered three times a week through oral gavage after 32 days; assay type: organism-based; conditions: in vivo, 768 h
[4] = AUC (0 to infinity) in Sprague-Dawley rat at 10 mg/kg, po; assay type: ADME, organism-based; set-up: dose 10 mg/kg, route oral, time infinity; conditions: in vivo
[5] = tested on: Mus musculus; assay: Toxicity in nude mouse xenografted with human OS-RC-2 cells assessed as body weight at 6 mg/kg administered three times a week through oral gavage measured on day 1 (reference value: 20.4 +/- 0.33 g); assay type: organism-based; conditions: in vivo
[6] = Drug uptake in Sprague-Dawley rat blood at 10 mg/kg, po after 0.25 hrs by HPLC method; assay type: ADME, organism-based; conditions: read-out: Drug uptake
[7] = tested on: Mus musculus; assay: Toxicity in nude mouse xenografted with human OS-RC2 cells assessed as body weight loss at 6 mg/kg administered three times a week through oral gavage and measured on Day 8 (reference value: 8.5 %); assay type: organism-based; conditions: in vivo
[8] = tested on: DU-145; assay: Antiproliferative activity against human DU145 cells after 48 hrs by MTT assay; assay type: functional, cell-based; conditions: DU-145, 48 h
[9] = tested on: Mus musculus; assay: Toxicity in nude mouse xenografted with human OS-RC2 cells assessed as body weight loss at 6 mg/kg administered three times a week through oral gavage and measured on Day 29 (reference value: 31.2 %); assay type: organism-based; conditions: in vivo
[10] = tested on: Mus musculus; assay: Toxicity in nude mouse xenografted with human OS-RC2 cells assessed as body weight loss at 6 mg/kg administered three times a week through oral gavage and measured on Day 19 (reference value: 23.1 %); assay type: organism-based; conditions: in vivo
[11] = tested on: OS-RC-2; assay: Antitumor activity against human OS-RC2 cells xenografted in nude mouse assessed as reduction in tumor volume at 6 mg/kg administered three times a week through oral gavage measured on day 19 relative to control; assay type: functional
[12] = Solubility of the compound in water; assay type: physicochemical
[13] = tested on: OS-RC-2; assay: Antitumor activity against human OS-RC2 cells xenografted in nude mouse assessed as reduction in tumor volume at 6 mg/kg administered three times a week through oral gavage measured on day 12 relative to control; assay type: functional
[14] = tested on: HepG2; assay: Antiproliferative activity against human HepG2 cells after 48 hrs by MTT assay; assay type: functional, cell-based; conditions: HepG2, 48 h
[15] = tested on: Mus musculus; assay: Toxicity in nude mouse xenografted with human OS-RC-2 cells assessed as body weight loss at 6 mg/kg administered three times a week through oral gavage measured on day 5 (reference value: 1.9%); assay type: organism-based; conditions: in vivo
[16] = tested on: OS-RC-2; assay: Antitumor activity against human OS-RC2 cells xenografted in nude mouse assessed as tumor volume at 6 mg/kg administered three times a week through oral gavage measured on day 1 (reference value: 167.51 +/- 17.09 mm3); assay type: functional
[17] = tested on: OS-RC-2; assay: Antitumor activity against human OS-RC2 cells xenografted in nude mouse assessed as tumor growth inhibition at 6 mg/kg administered three times a week through oral gavage measured after 32 days relative to control; assay type: functional; conditions: OS-RC-2, po, 768 h, read-out: TGI
[18] = Drug uptake in Sprague-Dawley rat blood at 10 mg/kg, po after 4 hrs by HPLC method; assay type: ADME, organism-based; conditions: read-out: Drug uptake
[19] = tested on: NCI-H460; assay: Antiproliferative activity against human NCI-H460 cells after 48 hrs by MTT assay; assay type: functional, cell-based; conditions: NCI-H460, 48 h
[20] = Drug uptake in Sprague-Dawley rat blood at 10 mg/kg, po after 24 hrs by HPLC method; assay type: ADME, organism-based; conditions: read-out: Drug uptake
[21] = tested on: PC-3; assay: Antiproliferative activity against human PC3 cells after 48 hrs by MTT assay; assay type: functional, cell-based; conditions: PC-3, 48 h
[22] = Drug uptake in Sprague-Dawley rat blood at 10 mg/kg, po after 0.5 hrs by HPLC method; assay type: ADME, organism-based; conditions: read-out: Drug uptake
[23] = Drug uptake in Sprague-Dawley rat blood at 10 mg/kg, po after 3 hrs by HPLC method; assay type: ADME, organism-based; conditions: read-out: Drug uptake
[24] = tested on: Mus musculus; assay: Toxicity in nude mouse xenografted with human OS-RC2 cells assessed as body weight loss at 6 mg/kg administered three times a week through oral gavage and measured on day 15 (reference value: 20.2 %); assay type: organism-based; conditions: in vivo
[25] = tested on: MDA-MB-435; assay: Antiproliferative activity against human MDA-MB-435 cells after 48 hrs by MTT assay; assay type: functional, cell-based; conditions: MDA-MB-435, 48 h
[26] = Drug uptake in Sprague-Dawley rat blood at 10 mg/kg, po after 6 hrs by HPLC method; assay type: ADME, organism-based; conditions: read-out: Drug uptake
[27] = tested on: OS-RC-2; assay: Antitumor activity against human OS-RC2 cells xenografted in nude mouse assessed as reduction in tumor volume at 6 mg/kg administered three times a week through oral gavage measured on day 8 relative to control; assay type: functional
[28] = Cmax in Sprague-Dawley rat at 10 mg/kg, po; assay type: ADME, organism-based; set-up: dose 10 mg/kg, route oral; conditions: in vivo
[29] = tested on: OS-RC-2; assay: Antitumor activity against human OS-RC2 cells xenografted in nude mouse assessed as reduction in tumor volume at 6 mg/kg administered three times a week through oral gavage measured on day 26 relative to control; assay type: functional
[30] = tested on: OS-RC-2; assay: Antitumor activity against human OS-RC2 cells xenografted in nude mouse assessed as reduction in tumor volume at 6 mg/kg administered three times a week through oral gavage measured on day 29 relative to control; assay type: functional
[31] = tested on: OS-RC-2; assay: Antitumor activity against human OS-RC2 cells xenografted in nude mouse assessed as reduction in tumor volume at 6 mg/kg administered three times a week through oral gavage measured on day 22 relative to control; assay type: functional
[32] = Drug uptake in Sprague-Dawley rat blood at 10 mg/kg, po after 1 hr by HPLC method; assay type: ADME, organism-based; conditions: read-out: Drug uptake
[33] = Drug uptake in Sprague-Dawley rat blood at 10 mg/kg, po after 1.5 hrs by HPLC method; assay type: ADME, organism-based; conditions: read-out: Drug uptake
[34] = tested on: Mus musculus; assay: Toxicity in nude mouse xenografted with human OS-RC2 cells assessed as body weight loss at 6 mg/kg administered three times a week through oral gavage and measured on Day 26 (reference value: 28.2 %); assay type: organism-based; conditions: in vivo
[35] = tested on: OS-RC-2; assay: Antitumor activity against human OS-RC2 cells xenografted in nude mouse assessed as tumor weight at 6 mg/kg administered three times a week through oral gavage measured after 32 days (reference value: 0.68 +/- 0.06 g); assay type: functional
[36] = tested on: Mus musculus; assay: Toxicity in nude mouse xenografted with human OS-RC2 cells assessed as body weight loss at 6 mg/kg administered three times a week through oral gavage and measured on Day 22 (reference value: 23.1 %); assay type: organism-based; conditions: in vivo
[37] = AUC (0 to t) in Sprague-Dawley rat at 10 mg/kg, po; assay type: ADME, organism-based; conditions: in vivo
[38] = Tmax in Sprague-Dawley rat at 10 mg/kg, po; assay type: ADME, organism-based; conditions: in vivo
[39] = tested on: OS-RC-2; assay: Antitumor activity against human OS-RC2 cells xenografted in nude mouse assessed as reduction in tumor volume at 6 mg/kg administered three times a week through oral gavage measured on day 5 relative to control; assay type: functional
[40] = Drug uptake in Sprague-Dawley rat blood at 10 mg/kg, po after 8 hrs by HPLC method; assay type: ADME, organism-based; conditions: read-out: Drug uptake
[41] = tested on: Mus musculus; assay: Toxicity in nude mouse xenografted with human OS-RC-2 cells assessed as body weight loss at 6 mg/kg administered three times a week through oral gavage measured after 32 days (reference value: 33%); assay type: organism-based; conditions: in vivo, 768 h
[42] = tested on: OS-RC-2; assay: Antitumor activity against human OS-RC2 cells xenografted in nude mouse assessed as reduction in tumor volume at 6 mg/kg administered three times a week through oral gavage measured on day 32 relative to control; assay type: functional
[43] = tested on: Mus musculus; assay: Toxicity in nude mouse xenografted with human OS-RC2 cells assessed as body weight loss at 6 mg/kg administered three times a week through oral gavage and measured on Day 12 (reference value: 15 %); assay type: organism-based; conditions: in vivo
[44] = tested on: OS-RC-2; assay: Antitumor activity against human OS-RC2 cells xenografted in nude mouse assessed as reduction in tumor volume at 6 mg/kg administered three times a week through oral gavage measured on day 15 relative to control; assay type: functional

CO[C@H]1C[C@@H]2CC[C@@H](C)[C@@](O)(O2)C(=O)C(=O)N2CCCC[C@H]2C(=O)O[C@H]([C@H](C)C[C@@H]2CC[C@@H](OCCO)[C@H](OC)C2)CC(=O)[C@H](C)/C=C(\C)[C@@H](O)[C@@H](OC)C(=O)[C@H](C)C[C@H](C)\C=C/C=C/C=C/1C
concentration at 2 h [1]: 69.7 ng/mL
half-life [2]: 2.2 h
Activity [3]: Non-Toxic
AUC(0-inf) [4]: 454 ng·h/mL
Activity [5]: 20.94 g
concentration at 0.25 h [6]: 17.4 ng/mL
Activity [7]: 3.1%
pIC50 [8]: 4.24
Activity [9]: 10.5%
Activity [10]: 9.7%
T/C [11]: 0.71%
solubility [12]: 1 µg/mL (≈ 1.04 µM)
T/C [13]: 0.72%
pIC50 [14]: 4.28
Activity [15]: 2.7%
Activity [16]: 167.38 mm3
inhibition in vivo at 6 mg/kg [17]: 41.1%
concentration at 4 h [18]: 61.4 ng/mL
pIC50 [19]: 4.00
concentration at 24 h [20]: 2.28 ng/mL
pIC50 [21]: 4.52
concentration at 0.5 h [22]: 100 ng/mL
concentration at 3 h [23]: 64.3 ng/mL
Activity [24]: 8.7%
pIC50 [25]: 4.20
concentration at 6 h [26]: 32.4 ng/mL
T/C [27]: 76%
Cmax [28]: 126 ng/mL
T/C [29]: 0.71%
T/C [30]: 0.72%
T/C [31]: 0.69%
concentration at 1 h [32]: 99.2 ng/mL
concentration at 1.5 h [33]: 90.4 ng/mL
Activity [34]: 9.1%
Activity [35]: 0.4 g
Activity [36]: 9.7%
AUC(0-t) [37]: 454 ng·h/mL
Tmax [38]: 1.91 h
T/C [39]: 79%
concentration at 8 h [40]: 16.3 ng/mL
Activity [41]: 11.7%
T/C [42]: 0.77%
Activity [43]: 8.2%
T/C [44]: 0.66%
